This passage reports TGI results from PubChem BioAssay (NCI).

SMILES strings stand for the structures.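 Dose response: 5 concentrations. Exposure: 48 h. Format: 96-well plates. Endpoint: linear interpolation; highest concentration if not reached. TGI: total growth inhibition.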

Test systems include DMS 114 small cell lung; M19-MEL melanoma; XF 498 CNS; RXF-631 renal; KM20L2 colon; LXFL 529 NSCLC; SNB-78 CNS; DMS 273 small cell lung; P388/ADR leukemia; SN12K1 renal; MDA-N.
What all share (test): NCI tumour cell line growth inhibition, 48 h

For `COc1c(Sc2ccccc2)cc(Sc2ccccc2)c2cccnc12`, the TGI was 91.3 µM in the experiment with DMS 114 small cell lung; 94.9 µM in the experiment with M19-MEL melanoma; 45.6 µM with XF 498 CNS; above 100 µM in the experiment on RXF-631 renal; 50.2 µM in the experiment on KM20L2 colon; above 100 µM with LXFL 529 NSCLC. Besides, the TGI with SNB-78 CNS is above 100 µM; with DMS 273 small cell lung, 49.3 µM.
As to `Nc1cc2[nH]cnc2c(=O)[nH]1`, the TGI is above 300 µM with DMS 114 small cell lung; above 300 µM in the experiment on M19-MEL melanoma; 29.4 µM in the experiment with XF 498 CNS; above 300 µM in the experiment with P388/ADR leukemia; above 300 µM with KM20L2 colon; above 300 µM in the experiment on SN12K1 renal. Also, the figures for the TGI with MDA-N, in the experiment with SNB-78 CNS and in the experiment on DMS 273 small cell lung were above 300 µM, above 300 µM and above 146 µM, respectively.
